From US9051595B2, “Malt1 specific cleavage in assay and screening method” (University of Lausanne, priority 2007, dated 2015)
“Also recorded” adds a separate entry of the source. Peptide text beside a SMILES is read from it. * marks the point of attachment. Cbz = O=C(OCc1ccccc1)*; CH2F = FC*

Experiments:
Format in all cases: cell-based, human
Bcl10 [1] = assay: Western blot for the faster migrating Bcl10 species (Bcl10 cleavage) in stimulated Jurkat cells pre-treated with inhibitors; conditions: for generation of the faster migrating Bcl10 species: Jurkat cells pre-incubated 30 min with inhibitor, stimulated with CD3/CD28, FIG. 2a; for anti-CD3/CD28-induced reduction in the apparent molecular weight of Bcl10: stimulated with anti-CD3 and anti-CD28, FIG. 5c
Procedure: For short term stimulations, cells were re-suspended at a density of 5×10^7 cells/mi in RPMI with 0.5% serum and pre-warmed for 10 min at 37° C. before addition of the stimulating agent.
T-cell stimulation was initiated by addition of PMA (10 ng/ml, Alexis) and ionomycin (1 μM, Calbiochem) (P/I) or a combination of anti-human CD3ε (10 μg/ml of OKT3, Apotech) and anti-CD28 (10 μg/ml of CD28.2, Immunotech) antibodies (CD3/CD28), immediately followed by addition of 5 μg/ml of cross-linking goat anti-mouse antibody (Southern Biotech).
Stimulations were stopped by addition of ice-cold Tris-NaCl buffer (20 mM Tris-HCl pH 7.4, 150 mM NaCl), and pelleted cells were lysed in Tris-NaCl lysis buffer containing 1% NP40, proteinase inhibitors (Complete, Roche) and phosphatase inhibitors (cocktails I and II, Sigma).
Postnuclear cell lysates were boiled with reducing SDS-sample buffer and analyzed on 16×20 cm gels by 15% SDS-PAGE according to Anderson, N. L. & Anderson, N. G. Analytical techniques for cell fractions. XXII. Two-dimensional analysis of serum and tissue proteins: multiple gradient-slab gel electrophoresis. Anal Biochem 85, 341-54 (1978).
Primary antibodies used are monoclonal mouse anti-phospho ERK (Sigma), rabbit anti-phospho-IκBα (5A5, Cell Signalling), rabbit anti-IκBα (Sigma), and rabbit anti-Bcl10 (H-197, Santa Cruz).
In a first approach, Jurkat cells were pre-incubated with either the pan-PKC inhibitor bisindolyl-maleimide VIII (BIM) or with Gö6976, an inhibitor of classical (Ca2+- and DAG-dependent) PKC isoforms, before stimulation with CD3/CD28 as indicated in Example 1. For pre-incubation, the cells were incubated with […] Gö6976 (Calbiochem) or 500 nM Bisindoleylmaleimide VIII acetate (Alexis), or solvent control for 30 min at 37° in RPMI with 0.5% serum directly prior to stimulation.
Cell lysis and western blots was done as in Example 1. The primary antibody for the experiment with VSV-tagged wt or VSV-tagged Carma1-DN and Carma1-coiled-coil construct is monoclonal mouse anti-VSV (P5D4, Sigma). For Carma1, a rabbit anti-Carma1 (AL220, Alexis) antibody was used.
(§1) For testing if the observed proteolytic activity is an indirect effect of Malt1 on other proteases, Jurkat cells were pretreated with the lysosomal or proteasomal inhibitors (NH4^+/leupeptin or MG132) or solvent control before stimulation with PMA and ionomycin, and postnuclear lysates were analyzed by Western blot as indicated.
(§2) In an analogue experiment, Jurkat cells were pretreated with the pan-caspase inhibitor zVAD-ink or solvent control, and stimulated with anti-CD3 and anti-CD28 antibodies or hexameric recombinant FasL for the indicated times. Postnuclear lysates were analyzed by Western blot with the indicated primary antibodies (FIG. 5c). A non-specific band (n.s.) of the anti-Bcl10 blot served as a loading control.

P-IκB = assay: Western blot for P-IκB in PMA/ionomycin-stimulated Jurkat cells; conditions: Jurkat cells pretreated with inhibitor, PMA and ionomycin; FIG. 5b
Procedure: as §1

caspase-8 = assay: FasL-induced caspase-8 activation in Jurkat cells (Western blot); conditions: Jurkat cells pretreated with inhibitor, hexameric recombinant FasL; FIG. 5c
Procedure: as §2

Bcl10 [2] = assay: Activation-induced cleavage of Bcl10 in living Jurkat T cells and CTLs (Western blot); conditions: Jurkat T cells or CTLs pre-incubated 1 h with inhibitor, PMA and ionomycin; FIGS. 11b, c
NF-κB = assay: anti-CD3/CD28-induced NF-κB activation in Jurkat T cells; conditions: FIG. 11d
IL-2 = IL-2 production of Jurkat cells stimulated with Raji cells and superantigen SEE; conditions: FIG. 11e
Procedure: To test the efficiency of inhibitors, Jurkat T cells stimulated or not with PMA and ionomycin for 20 min are mechanically lysed in cleavage assay buffer (see example 4) in the absence or presence of increasing concentrations of a irreversble cell permeable inhibitor peptide (z-VRPR-fink). This inhibitor was designed based on an optimal substrate cleavage sequence reported for the plant metacaspase AtMC9 (see ref. by Vercammen et al. 2006, J. Mol. Biol., 364(4):625-36). Malt1 protease activity is determined as described in example 4. […] Moreover, experiments are performed to assess the effect of the inhibitor on anti-CD3/CD28-induced NF-κB activation in Jurkat T cells, on IL-2 production of Jurkat cells stimulated by incubation with antigen-presenting cells (Raji cells in combination with the superantigen SEE) and on stimulation-induced adhesion to fibronectin (see example 7)).

Jurkat T cells = assay: Stimulation-induced adhesion of Jurkat T cells to fibronectin; conditions: FIG. 11f
Procedure: Central areas of tissue culture dishes (35-mm×10-mm) were coated for 90 min at 25° C. with 50 μl of fibronectin solution (40 μg/ml; Roche). Coated dishes were washed three times with PBS (without Ca2+ and Mg2+) and were blocked for 2 h with 1% (wt/vol) BSA in PBS. Cells were washed with Hank's balanced-salt solution (Gibco) and were left unstimulated or were stimulated at 37° C. for 30 min with MnCl2 (1 mM) or PMA (100 ng/ml), or for 5 min with anti-human CD3 and anti-CD28 (see example 1). Subsequently, cell suspensions were added to fibronectin-coated tissue culture dishes followed by incubation for additional 30 min at 37° C. Non-adherent cells were removed by washing of the dishes three to five times with Hank's balanced-salt solution. Adherent cells were counted in six separate fields with a microscope with an ocular counting reticule.
To test the efficiency of inhibitors, Jurkat T cells stimulated or not with PMA and ionomycin for 20 min are mechanically lysed in cleavage assay buffer (see example 4) in the absence or presence of increasing concentrations of a irreversble cell permeable inhibitor peptide (z-VRPR-fink). This inhibitor was designed based on an optimal substrate cleavage sequence reported for the plant metacaspase AtMC9 (see ref. by Vercammen et al. 2006, J. Mol. Biol., 364(4):625-36). Malt1 protease activity is determined as described in example 4. […]

Compound: CC(C)C[C@@H](C=O)NC(=O)[C@H](CC(C)C)NC(=O)[C@H](CC(C)C)NC(=O)OCc1ccccc1 [MG132] (Cbz-Leu-Leu-Leu-aldehyde)
- generation of the faster migrating Bcl10 species corresponding to Bcl10 cleavage (Bcl10 [1]; Jurkat cells pretreated with inhibitor, stimulated with PMA and ionomycin, FIG. 5a, 5b): did not affect; also recorded: lack of an effect
- stabilization of P-I[…]B (P-IκB): efficiently stabilized

Compound: Cn1cc(C2=C(c3cn(CCCN)c4ccccc34)C(=O)NC2=O)c2ccccc21 [BIM, bisindolyl-maleimide VIII]
- generation of the faster migrating Bcl10 species (Bcl10 [1]): prevented

Compound: COC(=O)C[C@H](NC(=O)[C@H](C)NC(=O)[C@@H](NC(=O)OCc1ccccc1)C(C)C)C(=O)CF [zVAD-fmk] (Cbz-Val-Ala-Asp(OMe)-CH2F)
- anti-CD3/CD28-induced reduction in the apparent molecular weight of Bcl10 (Bcl10 [1]; Jurkat cells pretreated with inhibitor): no effect
- anti-CD3/CD28-induced reduction in the apparent molecular weight of Bcl10 (Bcl10 [1]; Jurkat cells pretreated with inhibitor, listed as Z-VAD-fmk): lack of an effect
- FasL-induced caspase-8 activation (caspase-8): potently inhibited

Compound: Cn1c2ccccc2c2c3c(c4c5ccccc5n(CCC#N)c4c21)CNC3=O [Gö6976]
- generation of the faster migrating Bcl10 species (Bcl10 [1]): not Gö6976 prevented

Compound: z-VRPR-fmk (Cbz-VRPR-CH2F)
- activation-induced cleavage of Bcl10 (Bcl10 [2]): reduction
- capacity of T cells to activate NF-κB (NF-κB): impairs
- capacity of T cells to produce IL-2 (IL-2): impairs
- capacity of T cells to adhere to fibronectin upon T-cell activation (Jurkat T cells): impairs
